Test: stability in the presence of water
Format: physicochemical

With `CCCCCCCCCCCCCCCC[n+]1ccccc1.O=C([O-])Cc1ccccc1Nc1c(Cl)cccc1Cl` [cetylpyridinium salt of diclofenac, cetylpyridinium (1-hexadecylpyridinium) salt of diclofenac] the “stability in the presence of water” value was “virtually infinite”.
